Data taken from a melting point compilation (Tetko et al.).

Row | melting point | Compound
1 | 204 to 206 °C | Cc1c(C(=O)O)ccc2cnc(C3CC3)n12
2 | 151 to 153 °C | O=C(O)COc1cc(F)ccc1F
3 | 113 to 115 °C | COc1ccccc1C(N)=S
4 | 99 to 101 °C | CCc1cccc2c(C=O)c[nH]c12
5 | 64 to 66 °C | CC(CO)CC(C)(C)N (stereo not given)
6 | 211 to 213 °C | CC(C)(C)S(=O)(=O)Cc1ccc(N)cc1
7 | 90 to 92 °C | CS(=O)(=O)C(Br)C(=O)c1ccccc1 (stereo not given)
8 | 151 to 155 °C | Cc1n[nH]c(C)c1CC(=O)O
9 | 72 to 74 °C | CCOC(=O)c1ccc(N2CC(N)C2)nc1
10 | 163 to 167 °C | O=C1CCS(=O)(=O)c2ccc(F)cc21
11 | 184 to 186 °C | CS(=O)(=O)CCC(NC(=O)c1ccc(Cl)cc1)C(=O)O (stereo not given)
12 | 140 to 142 °C | NS(=O)(=O)c1ccc(OCCC(=O)O)cc1
13 | 242 to 244 °C | O=c1[nH]c2ccc([N+](=O)[O-])cc2o1
14 | 113 to 115 °C | CC(Oc1ccc(Br)cc1F)C(=O)O (stereo not given)
15 | 164 to 166 °C | C#CCN1C(=O)C(=O)c2cc(Br)ccc21
16 | 159 to 161 °C | Cc1nc(N)cc(C2CC2)n1
17 | 111 to 113 °C | COC(=O)c1ccc(N)c(F)c1
18 | 110 to 112 °C | NC(=O)NCC(F)(F)F
19 | 130 to 132 °C | Cc1ccc2oc(=O)[nH]c2c1
20 | 201 to 203 °C | COc1ccc2c(c1)OCC(C(=O)O)=C2
21 | 185 to 187 °C | NC(=O)NC(=O)OCCCl
22 | 119 to 121 °C | Nc1ccccc1N1CCN(CCc2ccncc2)CC1
23 | 170 to 172 °C | O=C(O)C#Cc1ccc(F)cc1F
24 | 109 to 113 °C | NNc1cnccn1

Row | melting point | Compound
25 | 116 to 118 °C | CC(C)C(Br)C(=O)NC1CCCCC1 (stereo not given)
26 | 144 to 146 °C | COC(=O)c1cc2c(OC(F)F)cccc2[nH]1
27 | 282 to 284 °C | NC(C(=O)O)c1ccccc1C(F)(F)F (stereo not given)
28 | 104 to 106 °C | Cc1n[nH]cc1C=O
29 | 189 to 191 °C | Nc1ccccc1NC(=O)c1ccccc1I
30 | 159 to 161 °C | Clc1ncnc2c(Br)cccc12
31 | 30 to 32 °C | Nc1nc2c(s1)CCCC2
32 | 194 to 196 °C | NC(=NO)c1ccc(Oc2ccc(F)cc2)nc1
33 | 239 to 241 °C | O=C(O)c1ccc(S(=O)(=O)CC(F)(F)F)cc1
34 | 230 to 232 °C | Cc1nc(-c2cnn(C)c2)sc1C(=O)O
35 | 107 to 109 °C | O=C(O)C1CCN(C(=O)CCc2ccccc2)CC1
36 | 48 to 50 °C | CCC(O)CNc1ccccc1 (stereo not given)
37 | 73 to 75 °C | CC[C@@H](CO)NCc1ccccc1
38 | 45 to 47 °C | O=S(=O)(Cl)Cc1cc(Cl)ccc1F
39 | 163 to 165 °C | Cc1nnc2c(Cl)cccn12
40 | 131 to 133 °C | CC(C)(C)OC(=O)Nc1ccc(F)cc1N
41 | 135 to 137 °C | Cc1ccc(-n2nc(C)c(C=O)c2Cl)cc1
42 | 205 to 207 °C | N#Cc1cc2c(nc1N)CCC2
43 | 51 to 53 °C | O=C1NCCS1
44 | 110 to 112 °C | Nc1c(Cl)ncnc1-n1cccn1
45 | 53 to 55 °C | COCC(C)(O)C(=O)O (stereo not given)
46 | 147 to 149 °C | c1ccc(CNc2nc3ccccc3[nH]2)cc1
47 | 179 to 181 °C | Nc1nnc(Cl)s1
48 | 135 to 137 °C | Nc1cccnc1Nc1ccccc1

Row | melting point | Compound
49 | 189 to 192 °C | CC(Cl)C(=O)c1ccc(NS(C)(=O)=O)cc1 (stereo not given)
50 | 230 to 232 °C | O=C(O)c1n[nH]c(=O)c2ccccc12
51 | 96 to 98 °C | O=C(O)c1cccc(Oc2cccc(Cl)c2)n1
52 | 77 to 79 °C | CCOC(=O)c1oc2ccccc2c1CBr
53 | < 17 °C | FC(F)Oc1ccccc1-c1noc(CCl)n1
54 | 239 to 241 °C | NNC(=O)c1n[nH]c(=O)c2ccccc12
55 | 184 to 186 °C | CN(CC(=O)N1CCCC(C(=O)O)C1)c1ccc(Cl)cn1 (stereo not given)
56 | 184 to 186 °C | O=C(O)C1CCS(=O)(=O)CC1
57 | 140 to 142 °C | N#Cc1ccc(I)cc1C#N
58 | 198 to 200 °C | O=C1CCC2(CC1)C(=O)Nc1ccccc12
59 | 179 to 181 °C | Nc1nnc(-c2cccc(OC(F)F)c2)o1
60 | 159 to 161 °C | O=C(O)CCc1nnc(-c2ccsc2)o1
61 | 234 to 236 °C | Cc1nn(-c2ccccc2)c2sc(C(=O)O)cc12
62 | 104 to 106 °C | Cc1ccc2c(c1)c(C=O)c(C)n2C
63 | 147 to 149 °C | O=C(O)c1occc1-c1ccc(F)cc1
64 | 49 to 51 °C | OCc1ccc2c(c1)NCC2
65 | 113 to 115 °C | Nc1ccc(S(=O)(=O)C2CCCC2)cc1
66 | 124 to 126 °C | COC(=O)c1c(N)sc(C)c1C
67 | 153 to 155 °C | COc1cc(C(=O)O)ccc1OC1CCCC1
68 | 156 to 158 °C | Cc1[nH]n(-c2ccc(Cl)c(Cl)c2)c(=N)c1C
69 | 143 to 147 °C | Cc1c(NC(=O)C(C)Sc2nnc(N)s2)c(=O)n(-c2ccccc2)n1C (stereo not given)
70 | 119 to 121 °C | Cn1cc(C#N)c(N)n1
71 | 166 to 168 °C | O=C(O)CCC(=O)N1CCN(c2ncccn2)CC1
72 | 140 to 142 °C | CN1CCN(S(=O)(=O)c2cccc(N)c2)CC1

Row | melting point | Compound
73 | 176 to 180 °C | Nc1nc(-c2ccc3c(c2)OCO3)cs1
74 | 145 to 147 °C | CC(=O)c1sc(N)nc1-c1ccccc1
75 | 264 to 266 °C | O=C(O)CNC(=O)C=Cc1cccnc1
76 | 126 to 128 °C | CC1CCC2(CC1)COC(=O)N2 (stereo not given)
77 | 87 to 89 °C | Nc1cc(C2CCC2)nn1-c1ccccc1
78 | 218 to 225 °C | Sc1nnc(-c2c[nH]c3ccccc23)o1
79 | 153 to 155 °C | Nc1cc(-c2ccccc2)nc(N)n1
80 | 162 to 164 °C | Nc1ccc(S(=O)(=O)Nc2ccc(Cl)cc2Cl)cc1
81 | 114 to 116 °C | O=C1NC(=O)N2CCCCC12 (stereo not given)
82 | 129 to 131 °C | CS(=O)(=O)Cc1c(N)cccc1F
83 | 236 to 238 °C | CS(=O)(=O)c1cc(C(=O)O)ccc1Br
84 | 133 to 135 °C | COc1ccc(C(=O)N2CCCCCC2)cc1N
85 | 99 to 101 °C | COC(=O)C(Br)CN1C(=O)c2ccccc2C1=O (stereo not given)
86 | 110 to 112 °C | CCc1cc(NN)nc(-c2ccccn2)n1
87 | 118 to 119 °C | COc1ccc(S(=O)(=O)N2CCCCCC2)cc1N
88 | 232 to 234 °C | COc1ccc(-n2c(C)cc(C(=O)O)c2C)cc1
89 | 309 to 311 °C | Cc1c(C(=O)O)sc2[nH]cnc(=S)c12
90 | 49 to 51 °C | CCCS(=O)(=O)N1CCC(N)CC1
91 | 68 to 70 °C | O=C(Nc1ccccc1C(F)(F)F)OCC(F)(F)F
92 | 150 to 152 °C | O=C(CC1(C(=O)O)CCCC1)N1CCOCC1
93 | 271 to 273 °C | Cn1nnc2ccc(C(=O)O)cc21
94 | 206 to 208 °C | Cc1ccc(-c2nnc(N)[nH]2)cc1
95 | 252 to 254 °C | NS(=O)(=O)c1ccc2c(c1)CC(=O)N2
96 | 139 to 141 °C | CCCCC1NC(=O)NC1=O (stereo not given)

Row | melting point | Compound
97 | 175 to 177 °C | CN(CC(=O)O)C(=O)c1cc(Cl)nnc1Cl
98 | 124 to 126 °C | Nc1nc2ccccc2o1
99 | 249 to 251 °C | CN1CCC(=O)Nc2cc(C(=O)O)ccc21
100 | 63 to 67 °C | COC(=O)c1ccc(C(=O)OC)c(S(=O)(=O)Cl)c1
101 | 195 to 197 °C | CCc1ccc(N(C(C)=O)c2nc(CCl)cs2)cc1
102 | 155 to 157 °C | Cc1c(N)cccc1C(=O)N1CCSCC1
103 | 183 to 187 °C | O=C(O)C1=NC=CN2CCS(=O)(=O)N=C12
104 | 250 to 252 °C | CC(Cl)c1nc2ccccc2c(=O)[nH]1 (stereo not given)
105 | 250 to 252 °C | O=S(=O)(Nc1nc2ccccc2nc1Cl)c1cc(F)ccc1F
106 | 214 to 216 °C | CC(C)(C)OC(=O)NCc1nc(-c2ccc(N)cc2)n[nH]1
107 | 36 to 38 °C | CCCOc1ccc(C=O)cc1OCC
108 | 64 to 66 °C | OC(c1cccnc1)C(F)(F)F (stereo not given)
109 | 153 to 155 °C | C#CCN1C(=O)C(=O)c2ccccc21
110 | 119 to 121 °C | O=C(NCCO)c1ccc(Cl)nn1
111 | 55 to 57 °C | CC1CC1c1cc(N)on1 (stereo not given)
112 | 137 to 139 °C | Cn1cnnc1Sc1ccccc1N
113 | 209 to 211 °C | Cc1ccc(F)cc1Nc1ncc(C(=O)O)cc1Cl
114 | 250 to 252 °C | O=C(O)c1c[nH]c2ccccc2c1=O
115 | 149 to 151 °C | Cc1cc(N)ccc1NC(=O)c1cccc(S(C)(=O)=O)c1
116 | 151 to 153 °C | O=C(O)C1(c2ccc(OCc3ccccc3)cc2)CCOCC1
117 | 113 to 115 °C | CC(C)c1ccc(OCCC(=O)O)cc1
118 | 68 to 70 °C | CC(=O)CCc1ccc(OC(C)C(=O)O)cc1 (stereo not given)
119 | 184 to 186 °C | O=C(O)c1ccc(OC2CCCCC2)cc1
120 | 193 to 195 °C | COC(=O)c1nc(-c2ccccc2)oc1N

Row | melting point | Compound
121 | 65 to 68 °C | CCCOc1ccc2ccccc2c1C=O
122 | 148 to 150 °C | CCC(C(=O)Nc1cccc(C(N)=S)c1)c1ccccc1 (stereo not given)
123 | 141 to 143 °C | COc1ccc(C)cc1/C=C/C(=O)O
124 | 261 to 263 °C | Cc1cc(S(N)(=O)=O)cc(C(=O)O)c1C
125 | 219 to 221 °C | Nc1ccc(Cc2nc3ccccc3s2)cc1
126 | 110 to 112 °C | O=S(=O)(c1ccc2c(c1)CCCC2)N1CCNCC1
127 | 113 to 115 °C | O=C1CCCc2c1sc1ccccc21
128 | 38 to 40 °C | O=C(Cc1ccc(Br)cc1)C(F)(F)F
129 | 210 to 212 °C | COC(=O)c1ccc2c(=O)[nH]c(CCl)nc2c1
130 | 54 to 56 °C | OCCNCc1ccc(Cl)c(Cl)c1
131 | 143 to 147 °C | O=C(O)c1ccccc1NS(=O)(=O)c1ccc(Cl)c(Cl)c1
132 | 179 to 181 °C | CC(O)C(NS(=O)(=O)c1ccc(Cl)cc1)C(=O)O (stereo not given)
133 | 97 to 99 °C | NC(=S)NCc1cccc(C(F)(F)F)c1
134 | 53 to 55 °C | Nc1ccc(F)cc1Nc1ccccc1F
135 | 193 to 195 °C | O=C(O)C1CCCN1C(=O)C12CC3CC(CC(C3)C1)C2 (stereo not given)
136 | 180 to 182 °C | O=C(O)CCCc1ccc2c(c1)CC(=O)N2
137 | 144 to 146 °C | O=C(O)c1ccc(F)cc1I
138 | 103 to 105 °C | Nc1ncccc1-c1ccccc1
139 | 118 to 120 °C | O=[N+]([O-])c1ccc(-c2noc(Cl)n2)cc1
140 | 117 to 119 °C | O=c1ccc2cc(S(=O)(=O)Cl)ccc2o1
141 | 206 to 208 °C | CC(=O)NC(Cc1c[nH]c2ccc(Br)cc12)C(=O)O (stereo not given)

Row | Compound | melting point
142 | O=C(O)c1cc([N+](=O)[O-])c(F)c([N+](=O)[O-])c1 | 237 to 239 °C
143 | O=[N+]([O-])c1ccc(CCl)c(Cl)c1 | 50 to 52 °C
144 | Cc1ccccc1NC(=O)CCl | 75 to 77 °C
145 | O=[N+]([O-])c1ncn(CCO)n1 | 76 to 78 °C
